Legend:
[1] = test system: BRAF–CDC37/HSP90 chaperone complex; test: Co-IP of BRAF-FLAG with endogenous CDC37–HSP90 chaperone complex; type: cell-based, human (HEK293); conditions: HEK293, 50 μM braftide, 4 h, bortezomib pretreatment, three biological replicates
Experimental: (§1) HEK293 cells were seeded at 1(10)^6 cells per well for a 6-well plate or 5(10)^6 for 10 cm dishes and incubated until 40% to 60% confluency. Transfection was carried out using a 1:3 DNA:PEI-MAX ratio in OPTI-MEM and allowed 48 h for protein expression. For peptide assays, 48 h post-transfection, cells were treated with TAT–braftide carried in OPTI-MEM at indicated concentrations. Cells were harvested in cold PBS. Harvested cells were lysed in 4% SDS or modified radioimmunoprecipitation assay (RIPA) for co-IP experiments. Quantification of total protein by the bicinchoninic acid assay was carried out according to the manufacturer's protocols (Pierce; catalog no.: 23225).
(§2) Transfected HEK293 cells were treated with the indicated treatments and harvested in cold PBS. […] Samples were analyzed via immunoblot.
(§3) Western blot band densities were quantified with ImageJ software (National Institutes of Health) and normalized to the indicated loading control. Statistical significance was determined through one-/two-way ANOVA, where indicated, followed by Tukey's honest significant difference post hoc test with corresponding p values (∗p < 0.05, ∗∗p < 0.002, ∗∗∗p < 0.0002, and ∗∗∗∗p < 0.0001). […]

CDC37–HSP90 interaction = test: Co-IP of CDC37-FLAG with HSP90 in HEK293; type: cell-based, human (HEK293); conditions: HEK293, 25 μM braftide, bortezomib pretreatment
Experimental: as §1, §2, §3

BRAF–CDC37 interaction = test: NanoBiT luminescence CDC37–RAF interaction reporter assay, BRAF^SmBiT–CDC37^LgBiT; type: cell-based, human (HEK293)
Description: NanoBiT cytomegalovirus MCS BiBiT vector, which contains a BRAF N terminal fused with LgBiT and CRAF N terminal fused with SmBiT, was purchased from Promega. CDC37 LgBiT and CRAF SmBiT was generated using the standard Gibson Assembly (NEB HiFi Assembly) using NanoBiT BiBiT as the vector and following primers: 5′ […] 3′, 5′ […] 3′, 5′ […] 3′, 5′ […] 3′, and CDC37 LgBiT and BRAF SmBiT was generated using the standard Gibson Assembly using NanoBiT BiBiT as the vector and following primers: 5′ […] 3′, 5′ […] 3′, 5′ […] 3′, 5′ […] 3′. Primers were designed to introduce H20A, N22A, I23A triple mutation within the CDC37 FLAG tag and for NanoBiT construct CDC37(HNI/A) LgBit and BRAF SmBiT. Primers were designed to introduce the desired substitutions. The forward primer sequence was 5′ gccgcc[…] 3′, and the reverse primer sequence was 5′ gggggc[…] 3′. Site-directed mutagenesis was carried out using the Q5 Site-Directed Mutagenesis Kit (NEB; E0554) following the manufacturer's protocol.
Twenty-four hours post-transfection, cells were trypsinized, pelleted, resuspended in OptiMEM + 4% fetal bovine serum, and reseeded onto a 96-well plate at 5(10)^4 cells per well and then incubated at 37 °C overnight. Cells were pretreated with 1 μM bortezomib for 5 h and then braftide for 4 h at 0 and 25 μM. After treatment, 10 μM furimazine substrate was added to each well, and luminescence readings were taken at 470 to 480 nm using a CLARIOstar plate reader. Statistical significance was determined through a paired t test where indicated, followed by Tukey's honest significant difference post hoc test with corresponding p values (∗p < 0.05, ∗∗p < 0.01, and ∗∗∗p < 0.001). All graph bars represent the mean ± SD with individual data points per biological replicate with corresponding p values.

[2] = test system: MAPK proteins (BRAF, CRAF, MEK, pMEK, ERK, pERK); test: Immunoblot of MAPK proteins in HCT116 cells; type: cell-based
Experimental: Western blot band densities were quantified with ImageJ software (National Institutes of Health) and normalized to the indicated loading control. Statistical significance was determined through one-/two-way ANOVA, where indicated, followed by Tukey's honest significant difference post hoc test with corresponding p values (∗p < 0.05, ∗∗p < 0.002, ∗∗∗p < 0.0002, and ∗∗∗∗p < 0.0001). All graph bars represent the mean ± SD with individual data points per biological replicate with corresponding p values.

CDC37–AKT1 interaction = test: Co-IP of CDC37-FLAG with AKT1; type: cell-based, human (HEK293); conditions: HEK293, 25 µM braftide, bortezomib pretreated, n=4
Experimental: as §1, §2, §3

HCT116 cells = conditions: HCT116, previously reported, readout not given; read-out: EC50, braftide, HCT116; cited from earlier work
Description: Our findings highlight the therapeutic potential of targeting CDC37–client kinase interactions, as oncogenic kinases are intrinsically unstable and thus are more dependent on their association with the HSP90–CDC37 chaperone complex for stability and activation compared with their wildtype counterparts ([4]). […] HCT116 cells harbor an upstream KRAS […]–activating mutation, with a previously reported braftide ...

GRKKRRQRRRPQ-miniPEG-TRHVNILLFM [Braftide]
association of BRAF with CDC37 and HSP90 [1]: reduced their association with CDC37 and HSP90 compared with the nontreated control
CDC37–HSP90 interaction (CDC37–HSP90 interaction): maintaining the CDC37–HSP90 interaction
NanoBiT luminescence, BRAF^SmBiT–CDC37^LgBiT (BRAF–CDC37 interaction; HEK293, 25 μM braftide, 4 h, 1 μM bortezomib pretreatment 5 h, 10 μM furimazine, 470 to 480 nm): reduction in luminescence, reflecting a decrease in the CDC37–RAF interaction
protein levels of NanoBiT constructs (immunoblot control) (BRAF–CDC37 interaction; HEK293, braftide, bortezomib pretreatment, BRAF and CRAF constructs (Fig. 1, K and M)): protein levels remained the same with bortezomib pretreatment
inhibition by monotherapy at 500 nM ([2]; HCT116, 500 nM single agent, immunoblot): Neither 17-AAG nor braftide monotherapy exhibited obvious inhibition
MAPK pathway protein levels, proteomics samples ([2]; HCT116, 10 µM braftide, 1 hr, 37°C, n=3): decreases MAPK pathway protein levels
association of CDC37 with AKT1 (CDC37–AKT1 interaction): disrupts client AKT1 from CDC37-FLAG in HEK293 cells
association of CDC37 with AKT1 (CDC37–AKT1 interaction; listed as braftide): reduced association of CDC37 with AKT1
EC50 (HCT116 cells): 7.1 ± 0.5 µM

— publication PMC12830207, “Targeting the protein–protein interaction between the CDC37 cochaperone and client kinases by an allosteric RAF dimer breaker” (The Journal of Biological Chemistry, 2025)
